# Results from PubChem BioAssay (NCI).
#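 All cell lines were grown in 96-well plates and treated with compound for 48 hours. Here, GI50 denotes the concentration required for 50% inhibition of growth. TGI: total growth inhibition.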
# Key:
# Test in all cases: growth of human tumour cells (NCI), 48 h
# 786-0 renal = system: 786-0 renal
# A498 renal = system: A498 renal
# A549 NSCLC = system: A549 NSCLC
# ACHN renal = system: ACHN renal
# BT-549 breast = system: BT-549 breast
# CAKI-1 renal = system: CAKI-1 renal
# CCRF-CEM leukemia = system: CCRF-CEM leukemia
# COLO 205 colon = system: COLO 205 colon
# DU-145 prostate = system: DU-145 prostate
# EKVX NSCLC = system: EKVX NSCLC
# HCC-2998 colon = system: HCC-2998 colon
# HCT-116 colon = system: HCT-116 colon
# HCT-15 colon = system: HCT-15 colon
# HL-60(TB) leukemia = system: HL-60(TB) leukemia
# HOP-62 NSCLC = system: HOP-62 NSCLC
# HOP-92 NSCLC = system: HOP-92 NSCLC
# HS 578T breast = system: HS 578T breast
# HT29 colon = system: HT29 colon
# IGROV1 ovarian = system: IGROV1 ovarian
# K-562 leukemia = system: K-562 leukemia
# KM12 colon = system: KM12 colon
# LOX IMVI melanoma = system: LOX IMVI melanoma
# MALME-3M melanoma = system: MALME-3M melanoma
# MCF7 breast = system: MCF7 breast
# MDA-MB-231 breast = system: MDA-MB-231 breast
# MDA-MB-435 = system: MDA-MB-435
# NCI-H226 lung = system: NCI-H226 lung
# NCI-H23 lung = system: NCI-H23 lung
# NCI-H460 lung = system: NCI-H460 lung
# NCI-H522 lung = system: NCI-H522 lung
# NCI/ADR-RES ovarian = system: NCI/ADR-RES ovarian
# OVCAR-3 ovarian = system: OVCAR-3 ovarian
# OVCAR-4 ovarian = system: OVCAR-4 ovarian
# OVCAR-5 ovarian = system: OVCAR-5 ovarian
# OVCAR-8 ovarian = system: OVCAR-8 ovarian
# RPMI-8226 leukemia = system: RPMI-8226 leukemia
# RXF 393 renal = system: RXF 393 renal
# SF-268 CNS = system: SF-268 CNS
# SF-295 CNS = system: SF-295 CNS
# SF-539 CNS = system: SF-539 CNS
# SK-MEL-2 melanoma = system: SK-MEL-2 melanoma
# SK-MEL-28 melanoma = system: SK-MEL-28 melanoma
# SK-MEL-5 melanoma = system: SK-MEL-5 melanoma
# SK-OV-3 ovarian = system: SK-OV-3 ovarian
# SN12C renal = system: SN12C renal
# SNB-19 CNS = system: SNB-19 CNS
# SNB-75 CNS = system: SNB-75 CNS
# SR leukemia = system: SR leukemia
# SW-620 colon = system: SW-620 colon
# TK-10 renal = system: TK-10 renal
# U251 CNS = system: U251 CNS
# UACC-257 melanoma = system: UACC-257 melanoma
# UACC-62 melanoma = system: UACC-62 melanoma
# UO-31 renal = system: UO-31 renal
structure (smiles),measurement,setting,value
COC(=O)N1CCN(CCNCc2ccc(NC(=O)c3ccc(C)c(C#Cc4cnc5cccnn45)c3)cc2C(F)(F)F)CC1,GI50,786-0 renal,1.45 µM
same,TGI,786-0 renal,3.54 µM
same,GI50,A498 renal,2.8 µM
same,TGI,A498 renal,7.35 µM
same,GI50,A549 NSCLC,1.69 µM
same,TGI,A549 NSCLC,4.21 µM
same,GI50,ACHN renal,2.32 µM
same,TGI,ACHN renal,6.85 µM
same,GI50,BT-549 breast,2.4 µM
same,TGI,BT-549 breast,4.95 µM
same,GI50,CAKI-1 renal,1.89 µM
same,TGI,CAKI-1 renal,4.71 µM
same,GI50,CCRF-CEM leukemia,1.46 µM
same,TGI,CCRF-CEM leukemia,8.22 µM
same,GI50,COLO 205 colon,1.19 µM
same,TGI,COLO 205 colon,2.79 µM
same,GI50,DU-145 prostate,2.22 µM
same,TGI,DU-145 prostate,4.77 µM
same,GI50,EKVX NSCLC,2.04 µM
same,TGI,EKVX NSCLC,4.39 µM
same,GI50,HCC-2998 colon,1.48 µM
same,TGI,HCC-2998 colon,2.86 µM
same,GI50,HCT-116 colon,0.63 µM
same,TGI,HCT-116 colon,2.32 µM
same,GI50,HCT-15 colon,1.1 µM
same,TGI,HCT-15 colon,3.07 µM
same,GI50,HL-60(TB) leukemia,0.342 µM
same,TGI,HL-60(TB) leukemia,3.22 µM
same,GI50,HOP-62 NSCLC,1.59 µM
same,TGI,HOP-62 NSCLC,3.43 µM
same,GI50,HOP-92 NSCLC,0.867 µM
same,TGI,HOP-92 NSCLC,2.83 µM
same,GI50,HS 578T breast,1.72 µM
same,TGI,HS 578T breast,5.04 µM
same,GI50,HT29 colon,0.769 µM
same,TGI,HT29 colon,2.32 µM
same,GI50,IGROV1 ovarian,1.41 µM
same,TGI,IGROV1 ovarian,3.43 µM
same,TGI,K-562 leukemia,> 100 µM
same,GI50,KM12 colon,0.434 µM
same,TGI,KM12 colon,1.73 µM
same,GI50,LOX IMVI melanoma,0.743 µM
same,TGI,LOX IMVI melanoma,2.05 µM
same,GI50,MALME-3M melanoma,0.893 µM
same,TGI,MALME-3M melanoma,2.41 µM
same,GI50,MCF7 breast,1.47 µM
same,TGI,MCF7 breast,3.06 µM
same,GI50,MDA-MB-231 breast,1.26 µM
same,TGI,MDA-MB-231 breast,3.25 µM
same,GI50,MDA-MB-435,1.08 µM
same,TGI,MDA-MB-435,2.39 µM
same,GI50,NCI-H226 lung,1.39 µM
same,TGI,NCI-H226 lung,5.32 µM
same,GI50,NCI-H23 lung,1.17 µM
same,TGI,NCI-H23 lung,2.88 µM
same,GI50,NCI-H460 lung,1.85 µM
same,TGI,NCI-H460 lung,3.76 µM
same,GI50,NCI-H522 lung,1.51 µM
same,TGI,NCI-H522 lung,3.23 µM
same,GI50,NCI/ADR-RES ovarian,2.02 µM
same,TGI,NCI/ADR-RES ovarian,6.24 µM
same,GI50,OVCAR-3 ovarian,2 µM
same,TGI,OVCAR-3 ovarian,4.2 µM
same,GI50,OVCAR-4 ovarian,1.93 µM
same,TGI,OVCAR-4 ovarian,5.86 µM
same,GI50,OVCAR-5 ovarian,1.39 µM
same,TGI,OVCAR-5 ovarian,3.97 µM
same,GI50,OVCAR-8 ovarian,1.82 µM
same,TGI,OVCAR-8 ovarian,4.35 µM
same,GI50,RPMI-8226 leukemia,1.37 µM
same,TGI,RPMI-8226 leukemia,4.32 µM
same,GI50,RXF 393 renal,1.73 µM
same,TGI,RXF 393 renal,3.21 µM
same,GI50,SF-268 CNS,2.08 µM
same,TGI,SF-268 CNS,4.78 µM
same,GI50,SF-295 CNS,1.54 µM
same,TGI,SF-295 CNS,3.03 µM
same,GI50,SF-539 CNS,1.4 µM
same,TGI,SF-539 CNS,2.78 µM
same,GI50,SK-MEL-2 melanoma,1.15 µM
same,TGI,SK-MEL-2 melanoma,2.8 µM
same,GI50,SK-MEL-28 melanoma,1.48 µM
same,TGI,SK-MEL-28 melanoma,2.89 µM
same,GI50,SK-MEL-5 melanoma,1.58 µM
same,TGI,SK-MEL-5 melanoma,2.97 µM
same,GI50,SK-OV-3 ovarian,2.07 µM
same,TGI,SK-OV-3 ovarian,3.85 µM
same,GI50,SN12C renal,1.68 µM
same,TGI,SN12C renal,4.08 µM
same,GI50,SNB-19 CNS,2.53 µM
same,TGI,SNB-19 CNS,5.89 µM
same,GI50,SNB-75 CNS,0.372 µM
same,TGI,SNB-75 CNS,1.95 µM
same,GI50,SR leukemia,0.796 µM
same,TGI,SR leukemia,22.1 µM
same,GI50,SW-620 colon,1.32 µM
same,TGI,SW-620 colon,3.41 µM
same,GI50,TK-10 renal,2.21 µM
same,TGI,TK-10 renal,5.07 µM
same,GI50,U251 CNS,1.53 µM
same,TGI,U251 CNS,3.32 µM
same,GI50,UACC-257 melanoma,1.53 µM
same,TGI,UACC-257 melanoma,3.27 µM
same,GI50,UACC-62 melanoma,1.43 µM
same,TGI,UACC-62 melanoma,3.04 µM
same,GI50,UO-31 renal,1.34 µM
same,TGI,UO-31 renal,3.14 µM
